Consider two compounds from patent US8580843B2, “Use of diindolylmethane (DIM) compounds and derivatives as neuroprotective agents” (Colorado State University Research Foundation, priority 2008, dated 2013).

In one assay the test system is NF-κB. In words: NF-κB EGFP reporter live-cell imaging in cis-NF-κB-EGFP transgenic astrocytes. It counts as cell-based, mouse. As to conditions: 10 μM, FIG. 4B. The text has this:
NF-κB reporter assays in cis-NF-κB^EGFP transgenic astrocytes and expression of mutant IκBα. To measure activation of NF-κB in live cell, astrocytes were isolated from a unique transgenic mouse expressing a reporter construct consisting of three HIV NF-κB consensus elements inserted 5′ to a minimal c-fos promoter that drives expression of enhanced green fluorescent protein (EGFP) (Magness et al., 2004) (Provided by Dr. Christian Jobin, University of North Carolina at Chapel Hill). NF-κB activity was determined by live-cell imaging using a Zeiss 20× air PlanApochromat objective using SlideBook v4.2 (Intelligent Imaging Innovations, Inc., Denver, Colo.). […] This approach was consistent between all replicates. At least four microscopic fields were examined per treatment group in each of at least three independent experiments, and reported as percent activated cells 8 hours following treatments. […]
A wide array of inflammatory genes, including Nos2, are driven by the NF-κB signaling cascade. […] Real-time imaging of GFP fluorescence was performed in control transgenic astrocytes exposed to saline and in cells exposed to MPTP and TNF-α/IFN-γ in combination with DIM-C-pPhtBu (10 μM), rosiglitazone (10 μM), or DMSO. […]

Assay [1] concerns proximal NF-κB enhancer element of the Nos2 promoter. Kind of assay: Chromatin immunoprecipitation (ChIP) at the proximal NF-κB enhancer element of the Nos2 promoter in astrocytes. It counts as cell-based, mouse. As to conditions: 10 μM co-treatment; FIG. 5. As for the experimental part:
Chromatin Immunoprecipitation (ChIP). ChIP procedures were adapted from a previously published report (Weinmann and Farnham, 2002) and optimized for primary astrocytes according to recent studies from our laboratory. Astrocytes were grown to confluence in 10 cm plates (Approx. 8.8×10^6 cells) and were treated for 3 hours with MPTP (10 μM), TNF-α (10 pg/ml) and IFN-γ (1 ng/ml) with or without DIM-C-pPhtBu (10 μM), rosiglitazone (10 μM) or a DMSO vehicle control for 3 hours prior to analysis. DNA was sheared into approximate 500 bp fragments by three ten-second pulses using a Tekmar Sonic Disrupter (Tekmar Co., Cincinnati, Ohio) set at 30% output, followed by collection of 10% input controls and addition of 2 μg precipitating antibody. Immune complexes were allowed to form overnight at 4° C. with gentle agitation, followed by the addition of protein-G magnetic beads (Active Motif, Carlsbad, Calif.) for an additional 90 min. Immunopurified DNA was isolated via phenol/chloroform extraction and subject to PCR using primers designed around the proximal murine Nos2 NF-κB binding region (Xie et al., 1992) (forward: 5′-ATGGCCTTGCATGAGGATACACCA-3′ Chromatin Immunoprecipitation (ChIP). ChIP procedures were adapted from a previously published report (Weinmann and Farnham, 2002) and optimized for primary astrocytes according to recent studies from our laboratory. Astrocytes were grown to confluence in 10 cm plates (Approx. 8.8×10^6 cells) and were treated for 3 hours with MPTP (10 μM), TNF-α (10 pg/ml) and IFN-γ (1 ng/ml) with or without DIM-C-pPhtBu (10 μM), rosiglitazone (10 μM) or a DMSO vehicle control for 3 hours prior to analysis. DNA was sheared into approximate 500 bp fragments by three ten-second pulses using a Tekmar Sonic Disrupter (Tekmar Co., Cincinnati, Ohio) set at 30% output, followed by collection of 10% input controls and addition of 2 μg precipitating antibody. Immune complexes were allowed to form overnight at 4° C. with gentle agitation, followed by the addition of protein-G magnetic beads (Active Motif, Carlsbad, Calif.) for an additional 90 min. Immunopurified DNA was isolated via phenol/chloroform extraction and subject to PCR using primers designed around the proximal murine Nos2 NF-κB binding region (Xie et al., 1992) (forward: 5′-ATGGCCTTGCATGAGGATACACCA-3′(SEQ ID NO:5); reverse: 5′-GAGTCTCAGTCTTCAACTCCCTGT-3′(SEQ ID NO:6)). Amplicons were separated by 2% agarose gel electrophoresis and stained with ethidium bromide.
To determine the mechanism by which DIM-C-pPhtBu modulates NF-κB activity, the ChIP assay was used to identify specific DNA-protein interactions at the proximal NF-κB enhancer element (-86 to -76) of the Nos2 promoter.
Primary cultured astrocytes were treated with MPTP and TNF/IFN in the presence or absence of DIM-C-pPhOCH3 (DIMS, 1 uM) or rosiglitazone (Ro, 10 uM) and cellular lysates subjected to chromatin immunoprecipitation (ChIP) assay for HDAC3 association with the proximal NF-kB binding site in the Nos2 promoter. HDAC3 is a transcriptional co-repressor of Nos2 gene expression.

In the case of `CN(CCOc1ccc(CC2SC(=O)NC2=O)cc1)c1ccccn1` (stereo not shown) [rosiglitazone, 5-((4-(2-(methyl-2-pyridinylamino)ethoxy)phenyl)methyl)-2,4-thiazolidinedione, reference compound], the “Suppression of MPTP+TNF-α/IFN-γ induced increase in total cellular GFP fluorescence (NF-κB activity)” value with NF-κB is “completely suppressed”. Moreover, in assay [1], the “Recruitment of PPAR-γ to the proximal NF-κB response element” value is reported as “recruited PPAR-γ” and the “Stabilization of NCoR2 at the proximal NF-κB response element” value is “prevented degradation of NCoR2”.
For `CC(C)(C)c1ccc(C(c2c[nH]c3ccccc23)c2c[nH]c3ccccc23)cc1` [DIM-C-pPhtBu, 1,1-bis(3′-indolyl)-1-(p-t-butylphenyl)methane], the “Suppression of MPTP+TNF-α/IFN-γ induced increase in total cellular GFP fluorescence (NF-κB activity)” value with NF-κB was “completely suppressed”. In assay [1], the “Binding of p65 to the Nos2 promoter induced by MPTP and cytokines” value is given as “blocked”; the “Recruitment of PPAR-γ to the proximal NF-κB response element” value is reported as “did not recruit PPAR-γ”; the “Stabilization of NCoR2 at the proximal NF-κB response element” value is on record as “nor did it stabilize NCoR2”.
